Test results: US20240390349A1, “DOSING REGIMEN OF CAPSID INHIBITOR” (priority 2023, published 2024)
“And” between values parts separate entries of the source, which are not always exact repeats. Equal entries are not always repeated. “Also recorded” adds a separate entry of the source.

Columns and labels:
HIV-1 [1] = assay: Efficacy of oral bridging (HIV-1 RNA, CD4), CAPELLA; assay type: in vivo, human; settings: for Percentage who maintained HIV-1 RNA<50 copies/mL: OB baseline HIV-1 RNA<50, Missing=Failure; for Proportion of participants with HIV-1 RNA<50 copies/mL: suppressed at OB baseline
Excerpt: This Example describes analysis of oral LEN bridging administered during a Phase 2/3, global, randomized, placebo-controlled multicenter study of lenacapavir (LEN) together with an optimized background regimen (OBR) in people with HIV (PWH) with multidrug resistance (MDR) (to […] antiretroviral (ARV) medications from each of ≥3 of the 4 main classes) and who are failing their current regimen (defined as plasma HIV-1 RNA≥400 copies/mL).
This Example describes a Phase 2/3, global, randomized, placebo-controlled multicenter study of LEN together with an OBR in PWH with MDR (to ≥2 ARV medications from each of ≥3 of the 4 main classes) and who are failing their current regimen (defined as plasma HIV-1 RNA≥400 copies/mL). Participants required oral bridging if an SC injection of LEN was not administered within the protocol visit window.
Participants were enrolled in either of the following two cohorts: • Cohort 1: Randomized in a 2:1 ratio to receive oral LEN or placebo for 14 days starting on Day 1, while they continued their existing regimen; or • Cohort 2: Enrolled to receive oral LEN together with an OBR.

HIV-1 [2] = assay: Efficacy of oral bridging (HIV-1 RNA, CD4), CALIBRATE; assay type: in vivo, human
Excerpt: This Example describes results from a Phase 2 clinical study evaluating the safety and efficacy of LEN in combination with other antiretroviral (ARV) agents in ARV-naive people with HIV (PWH).
This Example describes a Phase 2, randomized, open-label, active-controlled, multicenter study. Participants in Treatment Groups 1 and 2 required oral bridging following a clinical hold imposed by the Food & Drug Administration on injectable LEN as the SC injection of LEN could not be administered within the protocol visit window. An Oral Bridging visit was completed every 10 to 12 weeks. Participants had to have met all of the inclusion criteria and none of the exclusion criteria to be included in the study.

[3] = Safety data from all completed and ongoing clinical studies of LEN; assay type: in vivo, human; settings: oral doses up to 1800 mg
Procedure: Lenacapavir has been administered orally at doses up to 1800 mg. […] Oral LEN was administered without regard to food.

[4] = Safety during oral bridging period, CALIBRATE
Excerpt: An AE could, therefore, be any unfavorable and/or unintended sign, symptom, or disease temporally associated with the use of a study drug, whether or not considered related to the study drug.
Preexisting events that increased in severity or changed in nature during or as a consequence of participation in the clinical study were also considered AEs.

[5] = Safety during oral bridging, studies of Examples 4-5 together

## CC(C)(C#Cc1ccc(-c2ccc(Cl)c3c(NS(C)(=O)=O)nn(CC(F)(F)F)c23)c([C@H](Cc2cc(F)cc(F)c2)NC(=O)Cn2nc(C(F)(F)F)c3c2C(F)(F)[C@@H]2C[C@H]32)n1)S(C)(=O)=O [LEN, N—((S)-1-(3-(4-chloro-3-(methylsulfonamido)-1-(2,2,2-trifluoroethyl)-1H-indazol-7-yl)-6-(3-methyl-3-(methylsulfonyl)but-1-yn-1-yl)pyridin-2-yl)-2-(3,5-difluorophenyl)ethyl)-2-((3bS,4aR)-5,5-difluoro-3-(trifluoromethyl)-3b,4,4a,5-tetrahydro-1H-cyclopropa [3,4]cyclopenta [1,2-c]pyrazol-1-yl) acetamide]
HIV-1 [1]
  CD4 count and CD4% during oral bridging (in words): continued to increase from oral bridging baseline
  Mean (SD) oral bridging baseline CD4 cell count: 356 (261.1) cells/μL
  Mean oral bridging baseline CD4 percentage: 17.0%
HIV-1 [1]; Week 10
  Percentage who maintained HIV-1 RNA<50 copies/mL: 97.8%
  Mean (SD) change from oral bridging baseline in CD4 cell count: −16 (114.2) cells/μL
  Mean change from oral bridging baseline in CD4 percentage: 0.2%
HIV-1 [1]; Week 20
  Percentage who maintained HIV-1 RNA<50 copies/mL: 90.9%
  HIV-1 RNA of the 1 participant who did not maintain <50 copies/mL: 57 copies/mL
  Mean (SD) change from oral bridging baseline in CD4 cell count: 12 (71.8) cells/μL
  Mean change from oral bridging baseline in CD4 percentage: 1.0%
HIV-1 [1]; OB baseline HIV-1 RNA<50, Week 10
  Mean (SD) change from oral bridging baseline in HIV-1 RNA: 0.00 (0.250) log10 copies/mL
HIV-1 [1]; OB baseline HIV-1 RNA<50, Week 20
  Mean (SD) change from oral bridging baseline in HIV-1 RNA: −0.01 (0.096) log10 copies/mL
HIV-1 [1]; OB baseline HIV-1 RNA<50 copies/mL
  Mean (SD) baseline HIV-1 RNA: 1.34 (0.121) log10 copies/mL
HIV-1 [1]; OB baseline HIV-1 RNA≥50, Missing=Excluded, Week 10
  Percentage who achieved HIV-1 RNA<50 copies/mL: 27.3%
HIV-1 [1]; OB baseline HIV-1 RNA≥50, Missing=Excluded, Week 20
  Percentage who achieved HIV-1 RNA<50 copies/mL: 50.0%
HIV-1 [1]; OB baseline HIV-1 RNA≥50, Missing=Failure, Week 10
  Percentage who achieved HIV-1 RNA<50 copies/mL: 27.3%
HIV-1 [1]; OB baseline HIV-1 RNA≥50, Missing=Failure, Week 20
  Percentage who achieved HIV-1 RNA<50 copies/mL: 40.0%
HIV-1 [1]; OB baseline HIV-1 RNA≥50, Week 10
  Mean (SD) change from oral bridging baseline in HIV-1 RNA: −0.58 (1.188) log10 copies/mL
HIV-1 [1]; OB baseline HIV-1 RNA≥50, Week 20
  Mean (SD) change from oral bridging baseline in HIV-1 RNA: −1.05 (0.867) log10 copies/mL
HIV-1 [1]; OB baseline HIV-1 RNA≥50 copies/mL
  Mean (SD) baseline HIV-1 RNA: 3.43 (1.035) log10 copies/mL
HIV-1 [1]; Week 10, missed 2 nonconsecutive oral doses, N74D
  HIV-1 RNA of the 1 participant who did not maintain <50 copies/mL: 920 copies/mL
HIV-1 [1]; all who received oral bridging
  Mean (SD) oral bridging baseline HIV-1 RNA: 1.74 (0.947) log10 copies/mL
HIV-1 [1]; all who received oral bridging, Missing=Excluded, Week 10
  Percentage of participants with HIV-1 RNA<50 copies/mL: 83.9%
HIV-1 [1]; all who received oral bridging, Missing=Excluded, Week 20
  Percentage of participants with HIV-1 RNA<50 copies/mL: 91.4%
HIV-1 [1]; all who received oral bridging, Missing=Failure, Week 10
  Percentage of participants with HIV-1 RNA<50 copies/mL: 83.9%
HIV-1 [1]; all who received oral bridging, Missing=Failure, Week 20
  Percentage of participants with HIV-1 RNA<50 copies/mL: 84.2%
HIV-1 [1]; all who received oral bridging, Week 10
  Mean (SD) change from oral bridging baseline in HIV-1 RNA: -0.11 (0.597) log10 copies/mL
HIV-1 [1]; all who received oral bridging, Week 20
  Mean (SD) change from oral bridging baseline in HIV-1 RNA: −0.16 (0.476) log10 copies/mL
HIV-1 [1]; majority of participants suppressed at OB baseline
  Virologic suppression during oral bridging (in words): remained virologically suppressed
HIV-1 [1]; Missing=Excluded, OB Baseline
  Proportion of participants with HIV-1 RNA<50 copies/mL: 46/46 (100) %
HIV-1 [1]; Missing=Excluded, OB Week 30
  Proportion of participants with HIV-1 RNA<50 copies/mL: 10/10 (100) %
HIV-1 [2]
  CD4 count and CD4% during oral bridging (in words): generally stable or slightly increasing
HIV-1 [2]; LEN total group
  Mean (SD) CD4 cell count at oral bridging baseline: 762 (285.2) /μL
  Mean CD4% at oral bridging baseline: 34%
HIV-1 [2]; LEN total group, OB baseline
  Proportion of participants with HIV-1 RNA<50 copies/mL: 99.2%
HIV-1 [2]; Missing=Excluded, OB Week 10
  Proportion of participants with HIV-1 RNA<50 copies/mL: 77/77 (100) %
HIV-1 [2]; Missing=Excluded, OB Week 20
  Proportion of participants with HIV-1 RNA<50 copies/mL: 58/58 (100) %
HIV-1 [2]; Missing=Excluded, OB Week 30
  Proportion of participants with HIV-1 RNA<50 copies/mL: 5/5 (100) %
HIV-1 [2]; Missing=Excluded, all subsequent oral bridging time points, all treatment groups
  Proportion of participants with HIV-1 RNA<50 copies/mL: 100%
HIV-1 [2]; Missing=Failure, Week 10, LEN total
  Proportion of participants with HIV-1 RNA<50 copies/mL: 97.5%
HIV-1 [2]; Missing=Failure, Week 10, SC LEN total group
  Proportion of participants with HIV-1 RNA<50 copies/mL: 97.5%
HIV-1 [2]; Missing=Failure, Week 10, oral LEN group
  Proportion of participants with HIV-1 RNA<50 copies/mL: 97.4%
HIV-1 [2]; Missing=Failure, Week 20, LEN total
  Proportion of participants with HIV-1 RNA<50 copies/mL: 100%
HIV-1 [2]; Missing=Failure, Week 20, SC LEN total group
  Proportion of participants with HIV-1 RNA<50 copies/mL: 100%
HIV-1 [2]; Missing=Failure, Week 20, oral LEN group
  Proportion of participants with HIV-1 RNA<50 copies/mL: 100%
HIV-1 [2]; SC LEN total group
  Mean CD4% at oral bridging baseline: 35%
HIV-1 [2]; SC LEN total group (received OB), OB Baseline
  Proportion of participants with HIV-1 RNA<50 copies/mL: 100% and 82/82 (100) %
HIV-1 [2]; Week 10, LEN total group
  Mean change from oral bridging baseline in CD4%: 1%
  Mean change from oral bridging baseline in CD4 cell count: 35 µL⁻¹
HIV-1 [2]; Week 10, SC LEN total group
  Mean change from oral bridging baseline in CD4%: 0%
  Mean change from oral bridging baseline in CD4 cell count: 26 µL⁻¹
HIV-1 [2]; Week 10, oral LEN group
  Mean change from oral bridging baseline in CD4%: 1%
  Mean change from oral bridging baseline in CD4 cell count: 55 µL⁻¹
HIV-1 [2]; Week 20, LEN total group
  Mean change from oral bridging baseline in CD4%: 0%
  Mean change from oral bridging baseline in CD4 cell count: 0 µL⁻¹
HIV-1 [2]; Week 20, SC LEN total group
  Mean change from oral bridging baseline in CD4%: 0%
  Mean change from oral bridging baseline in CD4 cell count: -31 µL⁻¹
HIV-1 [2]; Week 20, oral LEN group
  Mean change from oral bridging baseline in CD4%: 1%
  Mean change from oral bridging baseline in CD4 cell count: 106 µL⁻¹
HIV-1 [2]; oral LEN group
  Mean CD4% at oral bridging baseline: 33%
HIV-1 [2]; oral LEN group, OB baseline
  Proportion of participants with HIV-1 RNA<50 copies/mL: 97.4%
HIV-1 [2]; treatment-naive participants
  Virologic suppression / virologic failure during oral bridging (in words): remained virologically suppressed; also recorded: No treatment-naive participants from the study described in Example 4 experienced virologic failure
[3]
  Overall safety and tolerability: generally safe and well tolerated at the intended exposures
[4]
  Changes from oral bridging baseline in blood pressure, pulse, respiration rate, body temperature: no clinically relevant changes from oral bridging baseline
[4]; 1 participant
  Treatment-related diarrhea: 1.2%
[4]; 2 participants, both in oral LEN group
  Grade 3 or higher blood creatine phosphokinase increased: 1.7%
[4]; LEN total group
  Participants with Grade 3 events: 2.5%
  Participants with Grade 3 or higher AEs: 5.0%
  Participants with Grade 4 events: 2.5%
  TEAE COVID-19: 5.8%
  TEAE influenza: 7.4%
  TEAE nasopharyngitis: 5.0%
  TEAE syphilis: 5.0%
[4]; LEN total group (121)
  Participants with any AE: 62.8%
[4]; LEN total group, all Grade 1
  Participants with AEs related to study drug: 3.3%
[4]; LEN total group, not related to study drug
  Participants with serious AEs: 2.5%
[4]; SC LEN total group
  AE oropharyngeal pain: 4.9%
  Participants with AEs related to study drug: 3.7%
  Participants with Grade 3 events: 1.2%
  Participants with Grade 3 or higher AEs: 3.7%
  Participants with Grade 4 events: 2.4%
  Participants with any AE: 64.6%
  Participants with serious AEs: 2.4%
  TEAE COVID-19: 4.9%
  TEAE influenza: 8.5%
  TEAE nasopharyngitis: 4.9%
  TEAE syphilis: 4.9%
[4]; any treatment group
  Changes from oral bridging baseline in hematology or clinical chemistry: no clinically relevant changes from oral bridging baseline in median values for hematology or clinical chemistry parameters
[4]; oral LEN group
  AE arthralgia: 5.1%
  AE blood creatine phosphokinase increase: 5.1%
  AE dyslipidemia: 5.1%
  AE oropharyngeal gonococcal infection: 5.1%
  Participants with AEs related to study drug: 2.6%
  Participants with Grade 3 events: 5.1%
  Participants with Grade 3 or higher AEs: 7.7%
  Participants with Grade 4 events: 2.6%
  Participants with any AE: 59.0%
  Participants with serious AEs: 2.6%
  TEAE COVID-19: 7.7%
  TEAE influenza: 5.1%
  TEAE nasopharyngitis: 5.1%
  TEAE syphilis: 5.1%
[4]; oral bridging period
  AEs leading to premature discontinuation of study drug or study: no TEAEs which led to a premature discontinuation of study drug or from the study were reported; also recorded: no AEs that led to premature discontinuation of study drug or from the study were reported
  Deaths: No deaths were reported
  Overall safety and tolerability of oral LEN: generally safe and well tolerated
[5]; HTE and treatment-naive PWH
  Overall safety and tolerability of oral bridging LEN 300 mg weekly: generally safe and well tolerated
[5]; oral bridging period
  Study drug-related SAEs: no study drug-related SAEs
